Laboratory results reported in patent publication US9351963B2, “Defensin-like molecules as novel antimicrobial agents” (UNIVERSITY OF MARYLAND, BALTIMORE, priority 2010, dated 2016).

Key:
[1] = test system: Staphylococcus aureus ATCC 29213; assay: 96-well turbidimetric antibacterial killing assay, S. aureus; format: cell-based
Protocol: (§1) The antibacterial activity of defensin mimetics against Staphylococcus aureus ATCC 29213 and Escherichia coli 25922 was carried out in a 96-well turbidimetric assay essentially as described (Ericksen, B., Wu, Z., Lu, W., and Lehrer, R. I. (2005) Antimicrob Agents Chemother 49, 269-275) with the following modifications: compounds were exposed for 30 min to […] prior to addition of […] in 10 mM phosphate buffer containing 5% DMSO. Bacterial growth was monitored for 12 hours and data were analyzed as described (Ericksen, et al). Determination of MICs was performed by Micromyx, LLC (Kalamazoo, Mich.) according to CLSI standards (CLSI. (2009) Methods for Dilution Antimicrobial Susceptibility Tests for Bacteria That Grow Aerobically; Approved Standard—Eighth Edition.)

[2] = Surface Plasmon Resonance binding to immobilized 3-Lipid II (BIAcore); details: defensin mimetics at 10 μM, immobilized 3-Lipid II, 25° C.
Protocol: Short-chain water-soluble Lipid II containing a lipid tail of three isoprene units was generated and purified essentially as described (Breukink, E., van Heusden, H. E., Vollmerhaus, P. J., Swiezewska, E., Brunner, L., Walker, S., Heck, A. J., and de Kruijff, B. (2003) J Biol Chem 278, 19898-19903). Typically, M. flavus vesicles (120 μmol lipid-Pi) were incubated together with 500 μmol UDP-GlcNAc, 500 μmol UDP-MurNAC-pentapeptide and 400 μmol farnesyl phosphate (3-P) in 100 mM Tris-HCl pH 8.0, 5 mM MgCl2. The incubation lasted two hours at room temperature for 3-P. The synthesis of 3-Lipid II was followed using RP-8 reversed phase TLC (Merck) developed in 75% methanol. For purification, the membranes were removed by centrifugation at 40,000×g and the supernatant was collected and loaded on a C18 HPLC column and eluted with a linear gradient from 50 mM ammonium bicarbonate to 100% methanol in 30 minutes. Farnesyl-Lipid II (3-Lipid II) eluted at approximately 60% methanol. Its identity was confirmed by mass spectroscopy.
Surface Plasmon Resonance binding experiments were carried out on a BIAcore T100 system (BIAcore Inc., Piscataway, N.Y.) at 25° C. The assay buffer was 10 mM HEPES, 150 mM NaCl, 0.05% surfactant P20, pH 7.4 (±3 mM EDTA) supplemented with 10% DMSO. […] For initial determination of binding, defensin mimetics were introduced into the flow-cells (30 μl/min) in the running buffer at 10 μM. Resonance signals were corrected for nonspecific binding by subtracting the background of the control flow-cell. After each analysis, the sensor chip surfaces were regenerated with 50 mM NaOH for 30 s at a flow rate 100 μl/min, and equilibrated with the buffer prior to next injection. For binding kinetics studies, binding isotherms were analyzed with manufacturer-supplied software for BIAcore T100.

[3] = test system: E. coli; assay: Broth microdilution MIC (CLSI, Micromyx), E. coli; format: cell-based; details: Escherichia coli
Protocol: as §1
To confirm the antibacterial killing assays, Minimal Inhibitory Concentrations (MICs, μg/ml) were determined for lead compounds against clinically relevant bacterial strains (Table 3, FIG. 11). […] Experiments were carried out according to CLSI standards (CLSI. (2009) Methods for Dilution Antimicrobial Susceptibility Tests for Bacteria That Grow Aerobically; Approved Standard—Eighth Edition.) by Micromyx, LLC (Kalamazoo, Mich.). […] There was no significant difference for any compound when evaluated against clinically relevant strains (e.g. MRSA, VRE, PRSP).

[4] = test system: S. aureus ATCC 29213; assay: Murine peritoneal sepsis model; format: in vivo, C57BL/6J mice
Protocol: Adult C57BL/6J mice (˜18 grams, 8-10 weeks old) were used for all experiments. Mice were obtained from the Jackson Laboratory (Bar Harbour, Me., USA) and housed in the IHV SPC animal core facility. Mice were fed standard chow (Harlan Laboratories) and water ad libitum. To assess the protective potency of defensin mimetic BAS00127538, groups of 5 mice were inoculated intraperitoneally ˜10^7 CFU/mL of S. aureus ATCC 29213 in 500 μL saline solution/25% DMSO plus 4.5% (w/v) porcine gastric mucin (Sigma Chemical Co., St Louis, Mo.). Infected animals (n=5) were subsequently treated by intra-peritoneal injection 1 and 4 hours post-infection with 2.5 mg/kg of compound in 100 μL sterile saline solution plus 25% DMSO (V/V), vancomycin/lysostaphin (5 mg/kg, saline solution/25% DMSO) or vehicle (saline solution/25% DMSO) as positive and negative controls respectively. Animals were closely observed during a period of 24 hours and mice that show signs of severe sepsis were humanely euthanized. Blood samples were collected by retro-orbital puncture at the indicated intervals post-infection using lithium-heparin polystyrene tubes to prevent coagulation. Spleens were harvested aseptically, weighed and homogenized in 500 μl of sterile saline solution using an IKA T10 basic disperser (IKA, Wilmington N.C.). Whole blood samples and spleen homogenates were serially diluted and plated onto LB agar plates. Bacterial counts were determined following 24 h incubation at 37° C. and expressed as CFU per milliliter for blood and CFU per gram for spleen.
Next, a murine model for sepsis was established to evaluate the efficacy of the lead defensin mimetics as antibiotic agents in vivo. […] Mice (n=5) were inoculated intraperitoneally with S. aureus 29213 and treated 1 h and 4 h post-infection with compound BAS00127538 at 2.5 mg/kg intraperitoneally Animals were monitored for survival and blood and spleen samples were collected. Bacterial counts were determined and compared to control treatment with vancomycin/lysostaphin as measures of efficacy (FIG. 6).

## CN1/C(=C/C=C/c2cc(-c3ccccc3)cc(-c3ccccc3)[o+]2)C(C)(C)c2ccccc21 [BAS00127538, 2,4-diphenyl-6-[(1E)-3-[(2E)-1,3,3-trimethyl-2,3-dihydro-1H-indol-2-ylidene]prop-1-en-1-yl]-1$1^4-pyran-1-ylium]
[1]
  Concentration at which compound was 100% bactericidal against S. aureus: 0.244 µM
[2]
  Binding to Lipid II as measured by SPR: most strongly bound
[3]
  MIC: 4 µg/mL
[4]; 2.5 mg/kg intraperitoneally 1 h and 4 h post-infection
  Bacterial counts in spleen and blood: significantly reduced
[4]; 2.5 mg/kg intraperitoneally 1 h and 4 h post-infection, n=5 mice
  Survival of animals: 4 out of five
[4]; mouse, in vivo
  Efficacy in vivo in a murine model for sepsis: proven effective
